{"source": "patent US20180042874A1", "about": "“METHOD FOR TREATING OSTEOPOROSIS” (China Medical University, priority 2016, published 2018)", "key": {"[1]": {"tested_on": "ERK", "assay": "Western blot of MAPK pathway, phosphorylated ERK", "assay_type": "cell-based, mouse", "conditions": "10 μg/ml co-treated with 100 ng/ml RANKL, 0-60 minutes", "description": "(§1) The effect of the compound of formula I on the protein expression of osteoclast MAPKs pathways induced by receptor activator of nuclear factor κB ligand was studied, experiments were performed by using the Western blot method; RAW 264.7 cells were rinsed in ice-cold PBS, cell lysis buffer was added, the components of the buffer solution included: 10 mM 4-(2-hydroxyethyl)-1-piperazineethanesulfonic acid (HEPES), 1.5 mM MgCl2, 0.5 mM dithiothreitol (DTT), 0.5 μg/ml leupeptin and 6.4% Nonidet P-40, reacted on ice for 15 minutes. The cells were scraped off with a spatula, collected into a 1.5 ml centrifuge tube, the cells were thoroughly broken by using a shaker; centrifuged at 12,000 rpm, 4° C. for 10 minutes; supernatant was added into a new 1.5 ml centrifuge tube; boiled with IX sodiumdodecyl sulfate (SDS) sample buffer, followed by electrophoresis using 10 to 12% SDS-PAGE. […] The transfer membrane was rinsed again and the membrane loaded with chemical luminescence reagent ECL was allowed to react with a photosensitive sheet in a darkroom for a suitable period of time, the photosensitive sheet then reacted with the developer. After the photosensitive sheet was exposed to light a band-shaped antibody-binding proteins was observed, quantified by the density of the bands. […]"}, "[2]": {"assay": "Body weight in ovariectomized osteoporosis rat model", "assay_type": "in vivo, Sprague-Dawley (SD) female rats", "conditions": "rat, in vivo", "description": "(§2) Inducing osteoporosis animal models and experimental methods: • 1. 6-month old Sprague-Dawley (SD) female rats were purchased; • 2. These rats were divided into 7 groups, of which Group 1 was given pseudo-surgery, Group 2-7 underwent bilateral ovariectomies; • 3. On the 6th day after surgery, 1 mL/kg of vehicle alone was given orally to Group 1, Group 2 daily, Zoledronic Acid and Prolia were administered weekly by injections to Group 3, Group 4, respectively; 1, 3, 10 mg/kg of the compound of formula I was given orally every 3 days to Groups 5-7, respectively; • 4. Body weight and bone density were measured weekly, blood was drawn until the 118th day; • 5. Rats were then sacrificed to obtain kidneys, livers and rat tibia; • 6. Data were consolidated and processed."}, "[3]": {"tested_on": "p38", "assay": "Western blot of MAPK pathway, phosphorylated p38", "assay_type": "cell-based, mouse", "conditions": "10 μg/ml co-treated with 100 ng/ml RANKL, 0-60 minutes", "description": "as §1"}, "[4]": {"tested_on": "ovariectomized rats", "assay": "Bone density in ovariectomized osteoporosis rat model", "assay_type": "in vivo, Sprague-Dawley (SD) female rats", "description": "as §2"}, "[5]": {"tested_on": "osteolytic activity of osteoclast cells induced by receptor activator of nuclear factor κB ligand", "assay": "Osteolytic activity of osteoclasts on corning osteo assay surface plate", "assay_type": "cell-based, mouse", "conditions": "10 μg/ml co-treated with 100 ng/ml RANKL, 12 days", "description": "Effect of the compound of formula I on receptor activator of nuclear factor κB ligand-induced osteocytic activity of the osteoclast cells Osteoclast is a multinuclear cell, which differentiates because of the stimulation of macrophage colony stimulating factor and receptor activator of nuclear factor κB ligand, after differentiation the folds on the edge of the osteoclast form a resorption groove on the cell membrane and the bone surface is […]. In this space, the […] secretes some enzymes and acids. These acids activate the enzymes to initiate osteolysis of bone mineral matrix. […]\nIn order to confirm the effect of the compound of formula I on the bone resorption capability of differentiated osteoclasts, RAW 264.7 cells were cultured in a 24-well plate (osteo assay plate, 24 well; corning incorporated) containing artificial bone material, the cell number of each well was 2×10^3 cell/ml. […] The number of grooves per each well was counted under a microscope 40× and further photographed for observation."}, "[6]": {"tested_on": "NF-κB p65", "assay": "Western blot of NF-κB p65", "assay_type": "cell-based, mouse", "conditions": "10 μg/ml co-treated with 100 ng/ml RANKL, 48 hours", "description": "as §1"}, "[7]": {"assay": "Liver and kidney toxicity in ovariectomized osteoporosis rat model", "assay_type": "in vivo, Sprague-Dawley (SD) female rats", "conditions": "ovariectomized rats, compared to commercially available drugs", "description": "Inducing osteoporosis animal models and experimental methods: • 1. 6-month old Sprague-Dawley (SD) female rats were purchased; • 2. These rats were divided into 7 groups, of which Group 1 was given pseudo-surgery, Group 2-7 underwent bilateral ovariectomies; • 3. […] Body weight and bone density were measured weekly, blood was drawn until the 118th day; • 5. Rats were then sacrificed to obtain kidneys, livers and rat tibia; • 6. Data were consolidated and processed. [table]"}, "[8]": {"tested_on": "NFATc2", "assay": "Western blot of MAPK downstream protein NFATc2", "assay_type": "cell-based, mouse", "conditions": "10 μg/ml co-treated with 100 ng/ml RANKL, 48 hours", "description": "as §1"}}}
{"compound": "CNC(=O)N[C@]1(C)CCC[C@@]2(C)C3CC[C@@]4(C)C[C@]3(CCC21)CC4=O", "note": "(single isomer, unassigned; ent-16) [compound of formula I, ent-16-oxobeyeran-19-N-methylureido]", "values": [{"measurement": "expression of phosphorylated ERK", "setting": "[1]", "value": "decreased"}, {"measurement": "effect on body weight", "setting": "[2]", "value": "different from commercially available drugs"}, {"measurement": "expression of phosphorylated p38", "setting": "[3]", "value": "decreased"}, {"measurement": "effect on reduced tibial bone density caused by ovarian removal", "setting": "[4]; ovariectomized rats, 1, 3, 10 mg/kg PO once every 3 days, 19 weeks after ovarian removal", "value": "improve the reduced tibial bone density"}, {"measurement": "increase of tibial bone density", "setting": "[4]; ovariectomized rats, PO once every 3 days, as compared to the experimental group", "value": 10, "unit": "%"}, {"measurement": "eroded area of the artificial bone material", "setting": "[5]", "value": "substantially reduced"}, {"measurement": "osteolytic activity of osteoclast cells", "setting": "[5]", "value": "inhibited"}, {"measurement": "NF-κB p65 protein expression", "setting": "[6]", "value": "protein expression was reduced"}, {"measurement": "cytotoxicity in kidney (blood urea nitrogen, plasma creatinine)", "setting": "[7]", "value": "less cytotoxicity in kidney than Zoledronic acid"}, {"measurement": "cytotoxicity in liver (alanine aminotransferase)", "setting": "[7]", "value": "less cytotoxicity in liver than Proliaor"}, {"measurement": "NFATc2 protein expression", "setting": "[8]", "value": "significantly reduced"}]}
